The record followed here is US20250059198A1, “BRM DEGRADING COMPOUNDS AND ASSOCIATED METHODS OF USE” (Arvinas Operations, Inc., priority 2021, published 2025).

For the assay, the target named is T1, BRM (Homo sapiens, UniProt P51531).
T1 construct: Western Blot Screen of BRM Degradation in SW1573 Cells; endogenous in cells; host or cells: SW1573 cells
The assay is described as follows: BRM degradation (Dmax and DC50) in SW1573 cells, Western blot screen / In-Cell Western screen. The class given is cell-based. The note with it: overnight (18-20 hours) treatment. The procedure, abridged:
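Dmax and DC50 were derived from BRM levels normalised to an alpha-tubulin control, measured by chemiluminescent Western blotting of lysates or by PFA-fixed In-Cell Western on LI-COR Odyssey. SW1573 cells received compound overnight (18–20 h, 0.1% DMSO final).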

T1 sequence (P51531 whole entry): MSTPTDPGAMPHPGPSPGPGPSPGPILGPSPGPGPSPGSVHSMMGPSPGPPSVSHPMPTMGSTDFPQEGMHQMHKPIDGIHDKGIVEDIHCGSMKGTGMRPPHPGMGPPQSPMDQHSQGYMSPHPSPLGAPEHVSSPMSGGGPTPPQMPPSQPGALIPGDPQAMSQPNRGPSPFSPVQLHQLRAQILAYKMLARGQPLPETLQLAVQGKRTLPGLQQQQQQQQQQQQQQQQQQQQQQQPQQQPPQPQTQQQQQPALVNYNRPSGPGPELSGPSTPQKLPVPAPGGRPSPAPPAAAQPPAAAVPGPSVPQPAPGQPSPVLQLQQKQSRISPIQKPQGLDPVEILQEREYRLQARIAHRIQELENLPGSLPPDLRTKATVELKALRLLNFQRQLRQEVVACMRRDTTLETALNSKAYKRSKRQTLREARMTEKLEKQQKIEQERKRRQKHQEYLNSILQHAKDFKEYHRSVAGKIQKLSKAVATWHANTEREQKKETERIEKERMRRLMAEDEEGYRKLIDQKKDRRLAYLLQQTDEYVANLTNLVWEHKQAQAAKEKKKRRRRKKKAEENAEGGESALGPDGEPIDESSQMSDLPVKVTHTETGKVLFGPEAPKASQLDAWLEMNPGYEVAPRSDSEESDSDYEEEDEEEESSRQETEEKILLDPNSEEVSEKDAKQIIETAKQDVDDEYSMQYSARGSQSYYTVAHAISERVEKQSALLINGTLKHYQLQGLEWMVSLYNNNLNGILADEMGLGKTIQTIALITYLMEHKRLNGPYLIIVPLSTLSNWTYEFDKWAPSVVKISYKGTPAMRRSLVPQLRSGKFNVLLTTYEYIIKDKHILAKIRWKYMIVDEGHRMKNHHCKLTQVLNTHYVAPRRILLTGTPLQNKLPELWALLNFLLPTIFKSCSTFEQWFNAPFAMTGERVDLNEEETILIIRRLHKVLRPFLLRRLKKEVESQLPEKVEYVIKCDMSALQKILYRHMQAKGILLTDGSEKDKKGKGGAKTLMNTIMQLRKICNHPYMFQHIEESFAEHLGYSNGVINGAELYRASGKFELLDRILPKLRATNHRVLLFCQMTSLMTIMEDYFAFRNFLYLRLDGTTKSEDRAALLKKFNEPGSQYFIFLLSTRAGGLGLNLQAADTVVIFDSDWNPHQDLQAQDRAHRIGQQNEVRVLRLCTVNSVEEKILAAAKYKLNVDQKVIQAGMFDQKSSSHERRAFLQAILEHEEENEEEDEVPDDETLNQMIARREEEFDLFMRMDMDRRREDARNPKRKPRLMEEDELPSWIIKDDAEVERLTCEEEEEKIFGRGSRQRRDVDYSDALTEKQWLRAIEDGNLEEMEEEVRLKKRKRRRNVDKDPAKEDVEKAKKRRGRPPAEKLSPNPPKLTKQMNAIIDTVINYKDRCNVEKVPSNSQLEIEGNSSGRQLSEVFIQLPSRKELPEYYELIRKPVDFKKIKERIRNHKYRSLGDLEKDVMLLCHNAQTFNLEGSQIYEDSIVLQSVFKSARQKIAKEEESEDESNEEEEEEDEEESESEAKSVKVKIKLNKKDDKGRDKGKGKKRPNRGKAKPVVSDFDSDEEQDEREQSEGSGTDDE

A word on the DC50: it is the midpoint of the concentration-degradation curve. Broadly, the Dmax is the greatest extent of degradation seen. As for `CC(C)[C@@H](C(=O)N1C[C@H](O)C[C@H]1C(=O)N[C@@H](C)c1ccc(C#N)cc1)c1cc(N2CCC(CN3CC[C@@H](Oc4cc(N5C6CCC5CN(c5cc(-c7ccccc7O)nnc5N)C6)ccn4)[C@@H](F)C3)CC2)no1` [Compound 157, (2S,4R)-1-[(2R)-2-[3-(4-{[(3S,4R)-4-[(4-{3-[3-amino-6-(2-hydroxyphenyl)pyridazin-4-yl]-3,8-diazabicyclo[3.2.1]octan-8-yl}pyridin-2-yl)oxy]-3-fluoropiperidin-1-yl]methyl}piperidin-1-yl)-1,2-oxazol-5-yl]-3-methylbutanoyl]-N-[(1S)-1-(4-cyanophenyl)ethyl]-4-hydroxypyrrolidine-2-carboxamide], the half-maximal degradation concentration (DC50) was less than 2.5 nM. The Dmax (read-out: Dmax (%)** (% degraded)) is more than 75%.
